In ChEMBL document CHEMBL1148123, “New diterpenes and norditerpenes from the fruits of Vitex rotundifolia” (2002) one finds GI50 data, which are given here for six compounds.

One test deals with PC-12. The test can be described thus: Cytotoxicity against rat PC12 cells assessed as growth inhibition after 72 hrs by MTT assay. It is filed as functional. The settings on record: PC-12, 72 h. (In general: Tetrazolium assays rely on reduction of a dye to a coloured formazan, in cell work by metabolically active cells.)
The test system of the next test is HCT-116. Put plainly: Cytotoxicity against human HCT116 cells assessed as growth inhibition after 72 hrs by MTT assay. The test is classed as functional. The conditions noted are these: HCT-116, 72 h.

Converted amounts (≈) assume the structure as drawn.

A word on the GI50: it is the concentration at which growth is held to half of that of the control. As for `CC(=O)O[C@@H]1C[C@@H](C)[C@](O)(CCC2=CC(=O)OC2)[C@@]2(C)CCCC(C)(C)[C@H]12` [VITEXILACTONE], the GI50 with PC-12 and in the test on HCT-116 was over 5 mg/L each time.
On to `COc1ccc(-c2oc3cc(OC)c(OC)c(O)c3c(=O)c2OC)cc1O` [CASTICIN], for which the figures for the GI50 in the test with PC-12 and in the test on HCT-116 were 0.114 mg/L (≈ 0.305 µM) and 0.119 mg/L (≈ 0.318 µM), respectively.
As to `CC(=O)O[C@@H]1C[C@@H](C)[C@]2(CCC(=O)O2)[C@@]2(C)CCCC(C)(C)[C@H]12`, the concentration for 50% growth inhibition (GI50) in the test with PC-12 and in the test on HCT-116 was over 5 mg/L each time.
Take `COc1ccc(-c2oc3cc(OC)c(OC)c(O)c3c(=O)c2OC)cc1OC` [ARTEMETIN]: the concentration for 50% growth inhibition (GI50) in the test on PC-12 came out at 2.27 mg/L (≈ 5.84 µM); in the test on HCT-116, 2.2 mg/L (≈ 5.66 µM).
For `COc1ccc([C@@H]2CC(=O)c3c(cc(OC)c(OC)c3O)O2)cc1O`, the GI50 worked out at 2.27 mg/L (≈ 6.55 µM) in the test on PC-12 and 2.87 mg/L (≈ 8.29 µM) with HCT-116.
With `CO[C@H]1C[C@@]2(CC[C@@]3(O2)[C@H](C)C[C@@H](OC(C)=O)[C@H]2C(C)(C)CCC[C@@]23C)[C@H](OC)O1` (relative stereo), the GI50 in the test with PC-12 and in the test on HCT-116 was over 5 mg/L throughout.
